# Measured values as given in PubChem BioAssay AID1845216 (Molecular Pharmacology Branch, DTP, NCI, 2023).
# Where “and” joins values, the source holds several entries; their conditions need not be identical. Equal entries are not always repeated.
# Tested on: SW 982 tumor spheroid viability
# Experiment: Anticancer human tumor SW 982 cell line growth inhibition;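 further: spheroids exposed to compound for 7 days before readout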
# Conditions: spheroids with HUVEC and MSC; for viability, T/C: stronger effect = lower value
# Procedure, shortened: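 Complex spheroids of malignant cells with endothelial cells and mesenchymal stem cells; agents alone or combined, from near clinical Cmax (or 10 microM if unknown) down in half-log steps, 0.25% DMSO final.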
# [1] = curve of first compound, second compound 0.003 µM
# [2] = second compound 0.003 µM, first compound 0.0316 µM
# [3] = second compound 0.003 µM, first compound 0.1 µM
# [4] = second compound 0.003 µM, first compound 0.316 µM
# [5] = second compound 0.003 µM, first compound 1 µM
# [6] = second compound 0.003 µM, first compound 3.16 µM
# [7] = second compound 0.003 µM, first compound 10 µM
structure (smiles),measurement,setting,value
COc1cc(C)[nH]c(=O)c1CN1CCc2c(Cl)cc(C(OC)C3COC3)c(Cl)c2C1=O (centres undefined) + CC[C@@]1(O)C(=O)OCc2c1cc1n(c2=O)Cc2cc3c(CN(C)C)c(O)ccc3nc2-1,IC50,[1],> 10 µM
same,IC50,"curve of first compound, second compound 0.00949 µM",> 10 µM
same,IC50,"curve of first compound, second compound 0.03 µM",> 10 µM
same,IC50,"curve of first compound, second compound 0.0949 µM",> 10 µM
same,IC50,"curve of first compound, second compound 0.3 µM",< 0.0316 µM
same,"viability, T/C",[2],87.8%
same,"viability, T/C",[3],81.4%
same,"viability, T/C",[4],90.5%
same,"viability, T/C",[5],89.8%
same,"viability, T/C",[6],87.8%
same,"viability, T/C",[7],90.4%
same,"viability, T/C","second compound 0.00949 µM, first compound 0.0316 µM",74.8%
same,"viability, T/C","second compound 0.00949 µM, first compound 0.1 µM",77.3%
same,"viability, T/C","second compound 0.00949 µM, first compound 0.316 µM",75.1%
same,"viability, T/C","second compound 0.00949 µM, first compound 1 µM",79.4%
same,"viability, T/C","second compound 0.00949 µM, first compound 3.16 µM",82.7%
same,"viability, T/C","second compound 0.00949 µM, first compound 10 µM",83%
same,"viability, T/C","second compound 0.03 µM, first compound 0.0316 µM",77.7%
same,"viability, T/C","second compound 0.03 µM, first compound 0.1 µM",66.8%
same,"viability, T/C","second compound 0.03 µM, first compound 0.316 µM",70.8%
same,"viability, T/C","second compound 0.03 µM, first compound 1 µM",75.8%
same,"viability, T/C","second compound 0.03 µM, first compound 3.16 µM",69%
same,"viability, T/C","second compound 0.03 µM, first compound 10 µM",72.5%
same,"viability, T/C","second compound 0.0949 µM, first compound 0.0316 µM",58.2%
same,"viability, T/C","second compound 0.0949 µM, first compound 0.1 µM",56%
same,"viability, T/C","second compound 0.0949 µM, first compound 0.316 µM",65%
same,"viability, T/C","second compound 0.0949 µM, first compound 1 µM",63%
same,"viability, T/C","second compound 0.0949 µM, first compound 3.16 µM",66%
same,"viability, T/C","second compound 0.0949 µM, first compound 10 µM",76.5%
same,"viability, T/C","second compound 0.3 µM, first compound 0.0316 µM",49.4%
same,"viability, T/C","second compound 0.3 µM, first compound 0.1 µM",47.2%
same,"viability, T/C","second compound 0.3 µM, first compound 0.316 µM",42.9%
same,"viability, T/C","second compound 0.3 µM, first compound 1 µM",41.2%
same,"viability, T/C","second compound 0.3 µM, first compound 3.16 µM",48.2%
same,"viability, T/C","second compound 0.3 µM, first compound 10 µM",52.4%
CC[C@@]1(O)C(=O)OCc2c1cc1n(c2=O)Cc2cc3c(CN(C)C)c(O)ccc3nc2-1,"viability, T/C",compound 0.003 µM,93.7% [middle of 10 runs]
same,"viability, T/C",compound 0.00949 µM,87.9% [middle of 10 runs]
same,"viability, T/C",compound 0.03 µM,81.2% [middle of 10 runs]
same,"viability, T/C",compound 0.0949 µM,70.1% [middle of 10 runs]
same,"viability, T/C",compound 0.3 µM,51.5% [middle of 10 runs]
same,IC50,"compound alone, run of 12/02/2019",> 0.3 µM and 0.283 µM
same,IC50,"compound alone, run of 12/12/2019",> 0.3 µM and 0.252 µM and 0.286 µM
Cc1cc(C)c(CNC(=O)c2cc(-c3ccc(CN4CCOCC4)cc3)cc3c2cnn3C2CCCC2)c(=O)[nH]1 + COc1cc2c(cc1O)CCNC21CSC2c3c(OC(C)=O)c(C)c4c(c3C(COC1=O)N1C(O)C3Cc5cc(C)c(OC)c(O)c5C(C21)N3C)OCO4,IC50,"curve of first compound, second compound 30 pM",> 10 µM
same,IC50,"curve of first compound, second compound 94.9 pM",> 10 µM
same,IC50,"curve of first compound, second compound 0.0003 µM",10 µM
same,IC50,"curve of first compound, second compound 0.000949 µM",< 0.0316 µM
same,IC50,[1],< 0.0316 µM
same,"viability, T/C","second compound 30 pM, first compound 0.0316 µM",97.9%
same,"viability, T/C","second compound 30 pM, first compound 0.1 µM",99.7%
same,"viability, T/C","second compound 30 pM, first compound 0.316 µM",104%
same,"viability, T/C","second compound 30 pM, first compound 1 µM",96.7%
same,"viability, T/C","second compound 30 pM, first compound 3.16 µM",92%
same,"viability, T/C","second compound 30 pM, first compound 10 µM",66.7%
same,"viability, T/C","second compound 94.9 pM, first compound 0.0316 µM",95.4%
same,"viability, T/C","second compound 94.9 pM, first compound 0.1 µM",106%
same,"viability, T/C","second compound 94.9 pM, first compound 0.316 µM",102%
same,"viability, T/C","second compound 94.9 pM, first compound 1 µM",103%
same,"viability, T/C","second compound 94.9 pM, first compound 3.16 µM",88.4%
same,"viability, T/C","second compound 94.9 pM, first compound 10 µM",57.9%
same,"viability, T/C","second compound 0.0003 µM, first compound 0.0316 µM",74.7%
same,"viability, T/C","second compound 0.0003 µM, first compound 0.1 µM",76%
same,"viability, T/C","second compound 0.0003 µM, first compound 0.316 µM",84%
same,"viability, T/C","second compound 0.0003 µM, first compound 1 µM",80.7%
same,"viability, T/C","second compound 0.0003 µM, first compound 3.16 µM",71.5%
same,"viability, T/C","second compound 0.0003 µM, first compound 10 µM",49.8%
same,"viability, T/C","second compound 0.000949 µM, first compound 0.0316 µM",35.7%
same,"viability, T/C","second compound 0.000949 µM, first compound 0.1 µM",39.9%
same,"viability, T/C","second compound 0.000949 µM, first compound 0.316 µM",37.5%
same,"viability, T/C","second compound 0.000949 µM, first compound 1 µM",36.1%
same,"viability, T/C","second compound 0.000949 µM, first compound 3.16 µM",27.6%
same,"viability, T/C","second compound 0.000949 µM, first compound 10 µM",17.8%
same,"viability, T/C",[2],0.71%
same,"viability, T/C",[3],0.36%
same,"viability, T/C",[4],0.51%
same,"viability, T/C",[5],0.31%
same,"viability, T/C",[6],0.29%
same,"viability, T/C",[7],0.83%
O=C(c1cc(Cc2n[nH]c(=O)c3ccccc23)ccc1F)N1CCN(C(=O)C2CC2)CC1,"viability, T/C",compound 0.0949 µM,99.7% and 104% and 98.4%
same,"viability, T/C",compound 0.3 µM,102% and 97.7% and 100%
same,"viability, T/C",compound 0.949 µM,96.9% and 88.7% and 98.6%
same,"viability, T/C",compound 3 µM,79.8% and 87.7% and 85.5%
same,"viability, T/C",compound 9.49 µM,63.3% and 54.4% and 49.8%
same,"viability, T/C",compound 30 µM,47.1% and 43.4% and 46.1%
same,IC50,curve of compound,24.7 µM and 15.8 µM and 9.44 µM
